Results taken from US20090221433A1, “SMALL MOLECULE PRINTING” (priority 2006, published 2009).

What was measured:
[1] = system: anti-17β-estradiol antibody; assay: Bioactive microarray binding profile, anti-17β-estradiol antibody; design: species or system rabbit; conditions: anti-17β-estradiol then labeled secondary antibody; replicate arrays
Experimental: (§1) To investigate the suitability of our approach for printing compounds that have not been intentionally synthesized with appendages for covalent capture, more than 300 commercially available bioactive compounds were printed onto isocyanate-functionalized slides. We screened these bioactive microarrays using rabbit primary antibodies against corticosterone, digitoxin, and 17β-estradiol, followed by a fluor-labeled goat anti-rabbit secondary antibody. The signal-to-noise ratio (SNR) was determined by calculating intensity at 635 nm and adjusting for local background for each feature on replicate arrays, and data were compared to replicate control arrays incubated with the labeled secondary antibody alone (FIG. 4). […] In the anti-corticosterone antibody binding profile, hydrocortisone (mean SNR 68.9), beclomethasone (63.3), and corticosterone (59.2), corticosteroids related in structure, scored as positives. […] 17β-estradiol (mean SNR 9.0), estriol (8.7) and estrone (7.3), primary estrogenic hormones varying in the number of reactive groups for capture, scored as positives in the anti-17β-estradiol binding profile.
(§2) Small-molecule microarray profiles with antibodies against natural products. […] Arrays were dried by centrifugation and scanned for fluorescence at 635 nm. Signal-to-noise ratio was calculated for each feature using adjusted diameters.

[2] = system: anti-digitoxin antibody; assay: Bioactive microarray binding profile, anti-digitoxin antibody; design: species or system rabbit; conditions: anti-digitoxin then labeled secondary antibody; replicate arrays
Experimental: We screened these bioactive microarrays using rabbit primary antibodies against corticosterone, digitoxin, and 17β-estradiol, followed by a fluor-labeled goat anti-rabbit secondary antibody. The signal-to-noise ratio (SNR) was determined by calculating intensity at 635 nm and adjusting for local background for each feature on replicate arrays, and data were compared to replicate control arrays incubated with the labeled secondary antibody alone (FIG. 4).
Microarrays printed with natural products and bioactives were incubated with various antibodies to detect specific compounds. In the first incubation step, arrays were incubated with 300 μL of one of the following: PBST buffer (control), a 1:500 solution of rabbit anti-corticosterone whole antiserum in PBST, 1:500 solution of rabbit anti-17β-estradiol whole antiserum in PBST for 30 min at room temperature. The arrays were briefly rinsed with PBST and then washed twice in PBST. All arrays were then incubated with 300 μL of a 1:1000 solution of Alexa Fluor® 647 […] polyclonal secondary antibody in PBST for 30 min at room temperature. Probed arrays were rinsed in PBST, washed three times in PBST, and washed once in PBS. Arrays were dried by centrifugation and scanned for fluorescence at 635 nm. Signal-to-noise ratio was calculated for each feature using adjusted diameters.

[3] = molecular target: FKBP12 (Homo sapiens, UniProt P62942); conditions: affinity of AP1497 for FKBP12; cited from earlier work
Sequence of FKBP12 (P62942 whole entry, species assumed): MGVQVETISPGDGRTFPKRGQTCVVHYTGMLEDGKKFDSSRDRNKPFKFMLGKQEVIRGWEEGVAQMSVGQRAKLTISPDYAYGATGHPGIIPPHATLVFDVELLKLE

[4] = molecular target: T1, FKBP12-6xHis (Homo sapiens, UniProt P62942); conditions: Table 1; cited from earlier work
T1 construct: made in house
T1 sequence (P62942 whole entry): as the sequence (P62942 whole entry, species assumed) above

[5] = system: anti-corticosterone antibody; assay: Bioactive microarray binding profile, anti-corticosterone antibody; conditions: anti-corticosterone then Alexa Fluor 647 goat-anti-rabbit; replicate arrays
Experimental: as §1, with “4). Six bioactives, with signal-to-noise ratios>3.0, were found in replicate arrays to bind to the labeled polyclonal secondary antibody alone. None of the compounds were autofluorescent at 635 nm as judged by arrays probed with PBS buffer alone (data not shown). Hygromycin B, an aminoglycoside antibiotic, gave the highest adjusted signal-to-noise ratio (mean SNR 47.6).” for “4).”
as §2, with “products. Microarrays printed with natural products and bioactives were incubated with various antibodies to detect specific compounds.” for “products.”

[6] = system: Alexa Fluor 647 goat-anti-rabbit IgG; assay: Bioactive microarray control, labeled secondary antibody alone; type: binding; conditions: labeled polyclonal secondary antibody alone
Experimental: as §1, §2

C[C@]12CC[C@@H]3c4ccc(O)cc4CC[C@H]3[C@@H]1C[C@@H](O)[C@@H]2O [estriol]
mean SNR (signal-to-noise ratio at 635 nm) [1]: 8.7

C[C@]12CC[C@H](O)C[C@H]1CC[C@@H]1[C@@H]2CC[C@]2(C)[C@@H](C3=CC(=O)OC3)[C@@H](O)C[C@]12O [Gitoxigenin]
mean SNR (signal-to-noise ratio at 635 nm) [2]: 62.5

C[C@H]1O[C@@H](O[C@H]2[C@@H](O)C[C@H](O[C@H]3[C@@H](O)C[C@H](O[C@H]4CC[C@@]5(C)[C@H](CC[C@@H]6[C@@H]5CC[C@]5(C)[C@@H](C7=CC(=O)OC7)CC[C@]65O)C4)O[C@@H]3C)O[C@@H]2C)C[C@H](O)[C@@H]1O [digitoxin]
mean SNR (signal-to-noise ratio at 635 nm) [2]: 15.1

AP1497
Kd [3]: 8.8 nM | Kd [4]: 18 nM

CC(=O)O[C@H]1C[C@H](O[C@H]2[C@@H](O)C[C@H](O[C@H]3[C@@H](O)C[C@H](O[C@H]4CC[C@@]5(C)[C@H](CC[C@@H]6[C@@H]5C[C@@H](O)[C@]5(C)[C@@H](C7=CC(=O)OC7)CC[C@]65O)C4)O[C@@H]3C)O[C@@H]2C)O[C@H](C)[C@H]1O[C@@H]1O[C@H](CO)[C@@H](O)[C@H](O)[C@H]1O [lanatoside C]
mean SNR (signal-to-noise ratio at 635 nm) [2]: 24.0

C[C@@H]1O[C@@H](O[C@H]2CC[C@]3(C=O)[C@H]4CC[C@]5(C)[C@@H](C6=CC(=O)OC6)CC[C@]5(O)[C@@H]4CC[C@]3(O)C2)[C@H](O)[C@H](O)[C@H]1O [convallatoxin]
mean SNR (signal-to-noise ratio at 635 nm) [2]: 52.7

C[C@]12CC[C@@H]3c4ccc(O)cc4CC[C@H]3[C@@H]1CC[C@@H]2O [17β-estradiol]
mean SNR (signal-to-noise ratio at 635 nm) [1]: 9.0

C[C@H]1C[C@H]2[C@@H]3CCC4=CC(=O)C=C[C@]4(C)[C@@]3(Cl)[C@@H](O)C[C@]2(C)[C@@]1(O)C(=O)CO [beclomethasone]
mean SNR (signal-to-noise ratio at 635 nm) [5]: 63.3

C[C@]12CCC(=O)C=C1CC[C@@H]1[C@@H]2[C@@H](O)C[C@@]2(C)[C@H]1CC[C@]2(O)C(=O)CO [hydrocortisone]
mean SNR (signal-to-noise ratio at 635 nm) [5]: 68.9

C[C@]12C[C@H](O)[C@H]3[C@@H](CCC4=CC(=O)CC[C@@]43C)[C@@H]1CC[C@@H]2C(=O)CO [corticosterone]
mean SNR (signal-to-noise ratio at 635 nm) [5]: 59.2

CN[C@H]1C[C@@H](N)[C@H](O)[C@@H](O[C@@H]2O[C@H](CO)[C@H](O)[C@@H]3OC4(O[C@H]23)O[C@H]([C@@H](N)CO)[C@H](O)[C@H](O)[C@H]4O)[C@@H]1O (stereo partly drawn) [Hygromycin B]
adjusted signal-to-noise ratio (mean SNR) [6]: 47.6
